The target in one assay is T1, recombinant human COMT (Homo sapiens, UniProt P21964).
T1 construct: GST (N, cleaved yes); made in house; host or cells: E. coli BL21 (DE3) CODON PLUS RP
T1 sequence (P21964 with tags, fused parts or gaps): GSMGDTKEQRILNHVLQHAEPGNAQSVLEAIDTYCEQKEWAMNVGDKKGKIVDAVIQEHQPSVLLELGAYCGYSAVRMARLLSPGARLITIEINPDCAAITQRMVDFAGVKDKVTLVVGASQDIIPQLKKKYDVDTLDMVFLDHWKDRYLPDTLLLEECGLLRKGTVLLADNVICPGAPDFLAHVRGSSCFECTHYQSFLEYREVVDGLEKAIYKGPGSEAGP
Description: Human COMT inhibitory potency. The assay is classed as biochemical. As to conditions: catechol substrate, [3H]-S-adenosyl-L-methionine, 37° C. 30 minutes.

The subject of assay [1] is rat cryopreserved hepatocytes. Description: Rat hepatocyte toxicities (cell viability, ATP activity). As to conditions: concentration that shows 50% of the number of viable cells of control, 4 hours at 37° C. Format: cell-based.
A short description of assay [2]: Evaluation of plasma L-dopa concentration. Format: in vivo, Sprague-Dawley rats. As to conditions: percentage of control group, test compound 3 mg/kg oral, blood 2 hours later; for Plasma L-dopa (%) 4 hour: L-dopa 5 mg/kg and carbidopa 30 mg/kg oral 4 hours after; for Plasma L-dopa (%) 6 hour: L-dopa 5 mg/kg and carbidopa 30 mg/kg oral 6 hours after.
Assay [3] has as its system unilateral 6-hydroxydopamine-lesioned hemi-Parkinsonian rats. In words: Potentiation of the efficacy of L-dopa, turning behavior. As to conditions: 10 mg/kg oral with 5 mg/kg L-dopa and 30 mg/kg carbidopa; for Total counts: contralateral rotation counts; for Duration: duration of contralateral turning response. The assay is classed as in vivo, Sprague-Dawley rats.

Bounds are passed on as bounds.

With `Cc1noc(-c2cc(O)c(O)c([N+](=O)[O-])c2)n1` [Comparative example 1, 5-(3-methyl-[1,2,4]oxadiazol-5-yl)-3-nitro-benzene-1,2-diol, reference compound], the half-inhibitory concentration (IC50) on recombinant human COMT was 0.0132 µM. In addition, in assay [1], the response was half-maximal at 172 µM (EC50). Also, in assay [2], the “Plasma L-dopa (%) 4 hour” value came out at 143.3 ± 13.3% and the “Plasma L-dopa (%) 6 hour” value was determined as 106.9 ± 18.2%.

For `Cc1nc(-c2cc(O)c(O)c([N+](=O)[O-])c2C(=O)c2ccccc2)no1` [Compound 1-1, [3,4-Dihydroxy-6-(5-methyl-[1,2,4]oxadiazol-3-yl)-2-nitro-phenyl]phenylmethanone], at recombinant human COMT, the IC50 is 0.0094 µM. In addition, in assay [3], the Total counts came to 2060.8 and the “Duration” value came out at 293.8 min. Also, in assay [1], the EC50 was 683 µM. In assay [2], the “Plasma L-dopa (%) 4 hour” value worked out at 182.9 ± 5.0% and the “Plasma L-dopa (%) 6 hour” value turned out to be 189.2 ± 32.8%.

Consider `CC(=O)c1c(-c2noc(C)n2)cc(O)c(O)c1[N+](=O)[O-]` [Compound 1-2], for which, in assay [3], the Total counts is 2103.0 and the “Duration” value is 312.5 min. In addition, in assay [1], the EC50 amounted to 645 µM.

Take `Cc1nc(-c2cc(O)c(O)c([N+](=O)[O-])c2C(=O)C(C)C)no1` [Compound 1-3, 1-[3,4-dihydroxy-6-(5-methyl-[1,2,4]-oxadiazol-3-yl)-2-nitrophenyl]-2-methylpropane-1-one]: at recombinant human COMT, the IC50 came out at 0.0081 µM. In assay [1], this compound had an EC50 of 698 µM.

`COC(=O)c1c(-c2noc(C)n2)cc(O)c(O)c1[N+](=O)[O-]` [Compound 1-5, methyl 3,4-dihydroxy-6-(5-methyl-[1,2,4]-oxadiazol-3-yl)-2-nitrobenzoate]: on recombinant human COMT, the IC50 worked out at 0.0093 µM. In assay [3], the Total counts is given as 2051.9 and the “Duration” value was found to be 321.3 min. The EC50 in assay [1] was greater than 1000 µM.

Regarding `COCc1nc(-c2cc(O)c(O)c([N+](=O)[O-])c2C(=O)OC)no1` [Compound 1-9], the IC50 at recombinant human COMT is 0.0077 µM. Also, the 50% effective concentration (EC50) in assay [1] is greater than 1000 µM.

For `CCOC(=O)c1c(-c2noc(C)n2)cc(O)c(O)c1[N+](=O)[O-]` [Compound 1-14], in assay [3], the Total counts turned out to be 1678.4 and the “Duration” value is 275.0 min.

For the compound `Cc1nc(-c2cc(O)c(O)c([N+](=O)[O-])c2C(=O)C2CCCCC2)no1` [Compound 1-20], the IC50 at recombinant human COMT was 0.0087 µM.

`Cc1nc(-c2cc(O)c(O)c([N+](=O)[O-])c2C(=O)c2ccccc2F)no1` [Compound 1-22]: the IC50 on recombinant human COMT was determined as 0.0083 µM. This compound also returned a half-maximal effective concentration (EC50) in assay [1] of 523 µM.

`Cc1nc(-c2cc(O)c(O)c([N+](=O)[O-])c2C(=O)c2ccno2)no1` [Compound 1-24]: the IC50 at recombinant human COMT was determined as 0.0076 µM. This compound also gave an EC50 in assay [1] greater than 1000 µM.

Regarding `CCOCCc1nc(-c2cc(O)c(O)c([N+](=O)[O-])c2C(C)=O)no1` [Compound 1-37], the concentration for half-maximal inhibition (IC50) at recombinant human COMT was 0.0047 µM.

On to `Cc1nc(-c2cc(O)c(O)c([N+](=O)[O-])c2C(=O)C(=O)NC2CCCCC2)no1` [Compound 1-40], for which the IC50 on recombinant human COMT is 0.0088 µM.

Consider `Cc1nc(-c2cc(O)c(O)c([N+](=O)[O-])c2C(=O)C(=O)N(C)C2CCCCC2)no1` [Compound 1-41], for which, on recombinant human COMT, the IC50 amounted to 0.0047 µM.

On to `Cc1ccc(C(=O)c2cc(O)c(O)c([N+](=O)[O-])c2)cc1` [Tolcapone, 3,4-dihydroxy-4′-methyl-5-nitro-benzophenone, reference compound], for which a half-maximal effect in assay [1] (EC50) was put at 34.3 µM.

The term IC50 denotes the concentration that gives 50% inhibition. One may read the EC50 as the midpoint of the concentration-response curve. High values mean weaker potency, low ones greater potency.
